In patent US20100075950A1, “PHENY[…] DOPAMINE RECEPTOR” (AUSPEX PHARMACEUTICALS, INC., priority 2008, published 2010):

Experiment: In vitro liver microsomal stability assay
Type: in vitro ADME
Conditions: 1 mg per mL liver microsome protein, NADPH-generating system, 5 microgram per mL test compound, about 37° C., 0-60 minutes, LC/MS/MS
Protocol: Liver microsomal stability assays were conducted at 1 mg per mL liver microsome protein with an NADPH-generating system in 2% NaHCO3 (2.2 mM NADPH, 25.6 mM glucose 6-phosphate, 6 units per mL glucose 6-phosphate dehydrogenase and 3.3 mM MgCl2). Test compounds were prepared as solutions in 20% acetonitrile-water and added to the assay mixture (final assay concentration 5 microgram per mL) and incubated at about 37° C. Final concentration of acetonitrile in the assay should be <1%. Aliquots (50 μL) were taken out at times 0, 15, 30, 45, and 60 minutes, and diluted with ice cold acetonitrile (200 μL) to stop the reactions. Samples were centrifuged at 12,000 RPM for about 10 minutes to precipitate proteins. Supernatants were transferred to microcentrifuge tubes and stored for LC/MS/MS analysis of the degradation half-life of the test compounds.

SMILES: Cl.[2H]C([2H])([2H])C(NC(C)C(=O)c1cccc(Cl)c1)(C([2H])([2H])[2H])C([2H])([2H])[2H] (stereo not shown) [Example 2, 2-(tent-d9-Butylamino)-1-(3-chlorophenyl)propan-1-one Hydrochloride]
- degradation half-life as compared to the non-isotopically enriched compound: improved degradation half-life
